Measurements reported in publication PMC6199744, “Development of Chemical Proteomics for the Folateome and Analysis of the Kinetoplastid Folateome” (ACS Infectious Diseases, 2018).
Where two headings read alike, the source gives them in different places.

How the values were obtained:
Format in all cases: binding
[1] = target: T1, HeLa cell extract proteins (Homo sapiens, UniProt Q12931)
T1 construct: endogenous in cells; host or cells: HeLa cell extract
T1 sequence (Q12931 60-704): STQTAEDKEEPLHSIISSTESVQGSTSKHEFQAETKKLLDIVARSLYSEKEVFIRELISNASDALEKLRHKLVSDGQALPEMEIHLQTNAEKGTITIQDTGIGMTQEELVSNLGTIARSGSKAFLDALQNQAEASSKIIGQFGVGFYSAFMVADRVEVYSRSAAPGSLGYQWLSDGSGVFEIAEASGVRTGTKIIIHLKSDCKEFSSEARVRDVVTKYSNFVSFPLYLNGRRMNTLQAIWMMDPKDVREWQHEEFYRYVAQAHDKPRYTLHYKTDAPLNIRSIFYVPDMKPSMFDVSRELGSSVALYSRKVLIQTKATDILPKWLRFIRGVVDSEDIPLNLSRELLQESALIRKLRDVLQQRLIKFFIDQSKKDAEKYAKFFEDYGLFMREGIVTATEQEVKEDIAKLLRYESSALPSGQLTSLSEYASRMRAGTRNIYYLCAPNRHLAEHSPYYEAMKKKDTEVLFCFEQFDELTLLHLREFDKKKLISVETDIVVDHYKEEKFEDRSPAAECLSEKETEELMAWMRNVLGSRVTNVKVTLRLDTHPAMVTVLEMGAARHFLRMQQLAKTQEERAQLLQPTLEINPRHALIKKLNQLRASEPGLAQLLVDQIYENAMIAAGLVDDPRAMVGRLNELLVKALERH

[2] = target: T2, HeLa cell extract proteins (Homo sapiens, UniProt P35080)
T2 construct: endogenous in cells; host or cells: HeLa cell extract
T2 sequence (P35080 1-140): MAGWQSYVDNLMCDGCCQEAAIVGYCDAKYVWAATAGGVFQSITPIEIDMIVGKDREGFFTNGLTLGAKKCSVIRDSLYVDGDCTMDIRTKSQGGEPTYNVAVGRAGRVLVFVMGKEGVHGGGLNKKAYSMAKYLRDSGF

[3] = target: T3, HeLa cell extract proteins (Homo sapiens, UniProt P31327)
T3 construct: endogenous in cells; host or cells: HeLa cell extract
T3 sequence (P31327 39-1500): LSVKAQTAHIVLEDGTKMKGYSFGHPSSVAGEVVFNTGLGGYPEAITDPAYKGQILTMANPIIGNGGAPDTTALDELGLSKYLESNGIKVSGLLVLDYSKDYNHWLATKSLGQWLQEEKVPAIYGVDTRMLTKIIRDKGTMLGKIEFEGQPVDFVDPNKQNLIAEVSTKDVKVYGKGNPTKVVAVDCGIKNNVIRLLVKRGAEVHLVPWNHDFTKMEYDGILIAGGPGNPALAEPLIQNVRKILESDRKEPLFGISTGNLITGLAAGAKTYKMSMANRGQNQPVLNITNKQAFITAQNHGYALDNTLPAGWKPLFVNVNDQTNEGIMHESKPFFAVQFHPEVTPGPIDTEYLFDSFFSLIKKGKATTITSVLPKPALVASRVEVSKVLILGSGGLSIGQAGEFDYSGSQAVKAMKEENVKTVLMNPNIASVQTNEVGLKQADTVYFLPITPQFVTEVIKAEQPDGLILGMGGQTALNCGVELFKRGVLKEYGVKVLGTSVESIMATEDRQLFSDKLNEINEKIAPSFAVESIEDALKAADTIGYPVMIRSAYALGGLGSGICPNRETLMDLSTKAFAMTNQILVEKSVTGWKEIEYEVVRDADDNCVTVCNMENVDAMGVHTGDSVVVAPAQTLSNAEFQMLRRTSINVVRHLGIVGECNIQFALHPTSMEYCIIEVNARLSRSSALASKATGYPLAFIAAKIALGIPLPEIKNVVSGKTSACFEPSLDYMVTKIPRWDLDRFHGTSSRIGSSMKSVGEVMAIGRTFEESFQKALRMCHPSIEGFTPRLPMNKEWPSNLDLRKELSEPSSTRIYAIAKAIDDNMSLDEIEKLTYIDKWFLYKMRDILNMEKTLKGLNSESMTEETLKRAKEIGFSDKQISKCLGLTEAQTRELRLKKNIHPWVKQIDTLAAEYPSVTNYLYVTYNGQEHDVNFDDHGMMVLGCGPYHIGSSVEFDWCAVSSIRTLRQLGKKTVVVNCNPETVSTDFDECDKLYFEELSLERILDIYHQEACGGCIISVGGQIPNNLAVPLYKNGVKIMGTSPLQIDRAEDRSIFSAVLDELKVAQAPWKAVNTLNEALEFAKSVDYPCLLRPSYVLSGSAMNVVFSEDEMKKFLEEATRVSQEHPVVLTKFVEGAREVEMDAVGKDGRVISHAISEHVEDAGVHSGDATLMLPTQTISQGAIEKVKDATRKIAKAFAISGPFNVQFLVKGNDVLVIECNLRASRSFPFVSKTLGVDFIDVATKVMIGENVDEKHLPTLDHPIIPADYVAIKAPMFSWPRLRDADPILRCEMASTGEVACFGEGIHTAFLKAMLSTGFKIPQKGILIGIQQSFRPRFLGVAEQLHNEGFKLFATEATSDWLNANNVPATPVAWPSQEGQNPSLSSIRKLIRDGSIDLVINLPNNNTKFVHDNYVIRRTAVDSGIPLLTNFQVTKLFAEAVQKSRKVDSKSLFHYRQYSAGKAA

Structure (SMILES) | fold changes relative to vehicle control ([1]; protein TRAP1, HeLa) | fold changes relative to vehicle control ([2]; HeLa, protein PFN2) | fold changes relative to vehicle control ([3]; HeLa, captured protein CPS1) | fold changes relative to vehicle control [1] | fold changes relative to vehicle control [2] | fold changes relative to vehicle control [3] | fold changes relative to vehicle control ([2]; protein PFN2, HeLa) | fold changes relative to vehicle control ([3]; protein CPS1, HeLa)
Nc1nc2c(c(=O)[nH]1)N(C=O)C(CNc1ccc(C(=O)N[C@@H](CCC(=O)O)C(=O)O)cc1)CN2 (stereo partly drawn) [LEU, leucovorin] | 0.95 | 1.07 | 1.13 |  |  |  |  | 
Nc1nc2[nH]cc(CCc3ccc(C(=O)N[C@@H](CCC(=O)O)C(=O)O)cc3)c2c(=O)[nH]1 [PTX, pemetrexed] |  |  |  | 1.02 | 1.01 | 1.08 |  | 
CCCCCCOc1ccc(Cc2cnc(N)nc2N)cc1 [compound 1] | 1.27 |  |  |  |  |  | 1.23 | 1.27
CCCCCCOc1cccc(Cc2cnc(N)nc2N)c1 [compound 2] | 1.77 |  |  |  |  |  | 0.99 | 1.61
Nc1nc2cccc(-c3ccccc3)c2n1Cc1ccc(Cl)c(Cl)c1 [compound 3] | 1.06 |  |  |  |  |  | 1.1 | 1.09
NCCOCCOCC(=O)Nc1nc2ncc(CNc3ccc(C(=O)NC(CCC(=O)O)C(=O)O)cc3)nc2c(=O)[nH]1 (stereo not drawn) [compound 6] | 1.2 | 1.06 | 1.27 |  |  |  |  | 
NCCCNc1ccc(C(=O)NC(CCC(=O)O)C(=O)O)cc1 (stereo not drawn) [compound 7] | 1.01 | 1.15 | 1.05 |  |  |  |  | 
